From EP0625155B1, “PYRROLOIMIDAZOLYL AND IMIDAZOPYRIDINYL SUBSTITUTED 1H-BENZIMIDAZOLE DERIVATIVES AS AROMATASE INHIBITORS” (JANSSEN PHARMACEUTICA N.V., priority 1992, dated 1993)

What was measured:
Plasma estradiol = assay: Estradiol production in PMSG-injected rats; set-up: species or system Female Wistar rats; details: Rattus norvegicus; 1 mg/kg by gavage three days after 200 I.U. PMSG s.c.; plasma 2 h after administration; % non-recovered relative to untreated controls; read-out: Estradiol in vivo (% inhibition) 1 mg/kg / 2h
Method: Female Wistar rats weighing 150 g were injected with 200 I.U. Pregnant Mare's Serum Gonadotropin (PMSG) (Folligon®) subcutaneously. Three days later 1 mg/kg of the test compound, dissolved in 20% polyethyleneglycol in water, was administered by gavage. Control animals received 20% polyethyleneglycol only. Two hours after drug or placebo administration the animals were killed by decapitation and trunk blood was collected in heparinized tubes. Plasma estradiol was measured using a direct fluorescence immunoassay.

Plasma testosterone = assay: Testosterone production in LHRH/ACTH-injected rats; set-up: species or system Adult male Wistar rats; details: Rattus norvegicus, po; 10 mg/kg orally by gavage; LHRH/ACTH injected 1 h later; plasma 2 h after stimulation; % non-recovered relative to untreated controls; read-out: Testosterone in vivo (% inhibition) 10 mg/kg / 2h
Method: (§1) Adult male Wistar rats weighing 250 g were starved 24 h before the start of the experiment. Between 8 and 9 a.m. 10 mg/kg of the test compounds were administered orally by gavage. One hour later, the animals were injected intramuscularly with 40 ng of Luteinizing Hormone Releasing Hormone (LHRH) (Receptal®) and 25 µg of Adrenocorticotropic Hormone (ACTH1-24) (Cortrosyn®). To avoid stress, the animals were also anesthetized with 7.5 mg of pentobarbital. Two hours after stimulation, the animals were killed by decapitation and trunk blood was collected in heparinized tubes. […] Corticosterone was measured using radio immunoassay with ^3H-labelled corticosterone and dextrane-coated charcoal to separate bound and free steroid.

Corticosterone = Corticosterone production in LHRH/ACTH-injected rats; set-up: species or system Adult male Wistar rats; details: Rattus norvegicus, po; 10 mg/kg orally by gavage; LHRH/ACTH injected 1 h later; plasma 2 h after stimulation; % non-recovered relative to untreated controls; read-out: Corticosterone in vivo (% inhibition) 10 mg/kg / 2h
Method: as §1

Compound | inhibition at 1 mg/kg (Plasma estradiol) [%] | inhibition at 10 mg/kg (Plasma testosterone) [%] | inhibition at 10 mg/kg (Corticosterone) [%]
CCCCn1cnc2ccc(C3CCc4cncn43)cc21 (racemic) [compound 22] | 91 | 92.5 | 35
Cn1cnc2ccc(C3CCc4cncn43)cc21 (racemic) [compound 23] | 78 | 81 | 31
CCCCCn1cnc2ccc(C3CCc4cncn43)cc21 (racemic) [compound 31] | 69 | 91 | 28
CCCCCCn1cnc2ccc(C3CCc4cncn43)cc21 (racemic) [compound 32] | 65 | 67 | 37
CCCn1cnc2ccc(C3CCc4cncn43)cc21 (racemic) [compound 33] | 82 | 98 | 55
CCCCn1c(CC)nc2ccc(C3CCc4cncn43)cc21 (racemic) [compound 34] | 80 | 12 | 21
c1cc2ncn(C3CCCCC3)c2cc1C1CCc2cncn21 (racemic) [compound 35] | 77 | 92 | 22
c1ccc(-n2cnc3ccc(C4CCc5cncn54)cc32)cc1 (racemic) [compound 37] | 31 | 96 | 22
c1ccc(Cn2cnc3ccc(C4CCc5cncn54)cc32)cc1 (racemic) [compound 38] | 42 | 80 | 7
CCn1cnc2ccc(C3CCc4cncn43)cc21 (racemic) [compound 39] | 90 | 93 | 39
c1cc2ncn(C3CC3)c2cc1C1CCc2cncn21 (racemic) [compound 41, (±)-1-cyclopropyl-6-(6,7-dihydro-5H-pyrrolo[1,2-c]imidazol-5-yl)-1H-benzimidazole dinitrate] | 89 | 91 | 39
CC(C)n1cnc2ccc(C3CCc4cncn43)cc21 (racemic) [compound 42] | 93 | 98 | 33
c1ccc(-c2nc3cc(C4CCc5cncn54)ccc3[nH]2)cc1 (racemic) [compound 43] | 54 | 64 | 20
CCCCn1c(NC(=O)OC)nc2ccc(C3CCc4cncn43)cc21 (racemic) [compound 44] | 66 | 66 | 10
c1nc2cc(C3CCc4cncn43)ccc2[nH]1 (racemic) [compound 46] | 77 | 78 | 23
Cc1nc2cc(C3CCc4cncn43)ccc2[nH]1 (racemic) [compound 47, (±)-5-(6,7-dihydro-5H-pyrrolo-[1,2-c]imidazol-5-yl)-2-methyl-1H-benzimidazole] | 72 | 85 | 4
CCCCn1c(O)nc2ccc(C3CCc4cncn43)cc21 (racemic) [compound 48, (±)-1-butyl-6-(6,7-dihydro-5H-pyrrolo[1,2-c]imidazol-5-yl)-1H-benzimidazol-2-ol] | 77 | 93 | 4
C=CCn1cnc2ccc(C3CCc4cncn43)cc21 (racemic) [compound 49] | 81 | 90 | 13
